Values quoted from earlier work as cited in patent publication US11969487B2, “Non-cellular root canal filling material and non-cellular dental tissue regeneration promoting kit” (Kowa Company, Ltd., priority 2017, dated 2024).
Where two headings read alike, the source gives them in different places.

Assays:
[1] = tested on: dental pulp stem cells on dentin surfaces; conditions: dental pulp stem cells seeded on treated dentin surfaces in vitro
[2] = tested on: dental pulp regeneration in dogs

In the case of trypsin, the “adhesion of the cells” value [1] is given as “increased”, the differentiation into odontoblasts [1] is given as “promotion of differentiation into odontoblasts was observed” and the dental pulp regeneration ([2]; no transplantation of dental pulp stem cells) is given as “hardly observed”. For the same substance, the dental pulp regeneration ([2]; root canals pretreated before dental pulp stem cell transplantation, middle-aged and elderly individuals) was “promoted” and the “effect of pretreatment on the dental pulp regeneration” value ([2]; young dogs) was “no effect”.
